Results reported in US7829304B2, “Compounds and related methods for mutant p53 reactivation” (Northwestern University, priority 2003, dated 2010).
“Also recorded” adds a separate entry of the source.

Legend:
[1] = test system: Saos2 cell lines expressing mutant p53 (Saos2-175, Saos2-281); assay: Cellular growth studies on Saos-2 cells expressing mutant p53; type: cell-based, human; conditions: for selective growth arrest/killing of cells expressing mutant p53 (in words): Saos-2 cells with mutant p53 versus p53-null cells
Procedure: (§1) Cellular growth studies were performed on Saos-2 cells, derived from a human osteosarcoma cancer cell line, according to the method described in Example 44. The cells had either no p53 (null) or mutant (mt) p53 at residues 175 and/or 281 (R175H and […], respectively). Selective arrest of mutant cells indicates good anticancer activity.
Cellular growth studies were performed on Saos2 cells. Human osteosarcoma Saos2 cells are devoid of endogenous p53 due to biallelic deletion of the p53 gene. Previously, a series of Saos2 cell lines were engineered to express several human p53 mutants that are commonly found in human cancers. The derivative Saos2 cell lines used in the present study included the following: 1) Saos2-CMV, which is the vector-only control cell line that is negative for p53 protein. 2) Saos2-175, which expresses the human mutant p53-R175H protein. The 175H substitution disrupts the structure of the protein resulting in the loss of DNA binding and tumor suppressor function. This mutation is found in ˜6% of all cancers of diverse tumor types. 3) Saos2-273, which expressed the human mutant p53-R273H protein. The 273H substitution eliminates a DNA contact point resulting in the loss of DNA binding and tumor suppressor function. This mutation represents the second most common hot spot mutation and is found in nearly 8% of all cancers. 4) Saos2-281, which expresses the human mutant p53-D281G protein. This mutation disrupts a stabilizing salt bridge resulting in the loss of DNA binding and tumor suppressor function.
The cells were grown at 37° C. in Dulbecco's modified Eagle's medium (Cambrex, East Rutherford, N.J.) supplemented with 10% fetal bovine serum (Hyclone, Logan, Utah) under 5% CO2. The cells were plated at 1×10^6 per 10 cm tissue culture plates and treated with escalating doses of the indicated compounds (Table 1) for varying lengths of time. Routine concentrations of the synthesized compounds ranged from 1-75 μM. After 72-96 hours, the cells were refed with fresh medium containing the appropriate concentration of the compound. In addition, parallel cultures were prepared and maintained under identical conditions without drug treatment as negative controls. The cells were microscopically analyzed during the course of treatment and the overall effectiveness of the drug treatment on cell growth and survival was assessed on day 7 by staining the cells with Giemsa Stain GS500 (SIGMA, St. Louis, Mo.). Prima-1 was included in all experiments for comparison purposes. […] The few Saos2 mutant p53 cells remaining after treatment with compound 7 were quite large and flat, reminiscent of a differentiated cell.

[2] = test system: Saos2-CMV cells (p53-null, vector-only control); assay: Cellular growth studies on p53-null Saos2 control cells; type: cell-based, human
Procedure: as §1
Cellular growth studies were performed on Saos2 cells. Human osteosarcoma Saos2 cells are devoid of endogenous p53 due to biallelic deletion of the p53 gene. Previously, a series of Saos2 cell lines were engineered to express several human p53 mutants that are commonly found in human cancers. The derivative Saos2 cell lines used in the present study included the following: 1) Saos2-CMV, which is the vector-only control cell line that is negative for p53 protein. 2) Saos2-175, which expresses the human mutant p53-R175H protein. […]
The cells were grown at 37° C. in Dulbecco's modified Eagle's medium (Cambrex, East Rutherford, N.J.) supplemented with 10% fetal bovine serum (Hyclone, Logan, Utah) under 5% CO2. […] The cells were microscopically analyzed during the course of treatment and the overall effectiveness of the drug treatment on cell growth and survival was assessed on day 7 by staining the cells with Giemsa Stain GS500 (SIGMA, St. Louis, Mo.). […]

Row | SMILES | selective growth arrest/killing of cells expressing mutant p53 (in words) [1] | other results
1 | CC(=O)OCC(N)C(=O)c1ccccc1.Cl (racemic) [Compound 7, 3-Acetoxy-1-oxo-1-phenylpropan-2-aminium chloride] | activity at lower concentrations, as compared to PRIMA-1; also recorded: efficiently and selectively inhibited the growth of the Saos2 cell lines expressing mutant p53; also recorded: particularly effective at selectively killing cells expressing R175H and R281G p53 mutants at lower concentrations than PRIMA-1 | effect on growth of CMV-only cells which lack p53 protein ([2]; Saos2-CMV, assessed on day 7 by Giemsa stain): no effect
2 | CC(=O)OCC(N)(COC(C)=O)C(=O)c1ccccc1.Cl [Compound 4, 3-Acetoxy-2-(acetoxymethyl)-1-oxo-1-phenylpropan-2-aminium chloride] | activity at lower concentrations, as compared to PRIMA-1; also recorded: showed selectivity for R281G mutants | minimal effective concentration ([1]; Homo sapiens, 168 h, Mutant: 281, Saos-2 cells, concentration at which active, doses 1-75 μM, cell growth and survival assessed on day 7 by Giemsa stain): 10 µM
3 | COC(=O)C(N)COC(C)=O.Cl (stereo not shown) [Compound 14, 3-Acetoxy-1-methoxy-1-oxopropan-2-aminium chloride] | the desired activity is lost | –
4 | O=C1C2CCN(CC2)C1(CO)CO [PRIMA-1, reference compound] | – | toxic to p53-null cells at concentration ([2]; p53-null Saos-2 cells): 75 µM
5 | CC(=O)OCC(N)C(=O)N1CCOCC1.Cl (stereo not shown) [Compound 15, 3-Acetoxy-1-morpholino-1-oxopropan-2-aminium chloride] | the desired activity is lost | –
6 | CC(=O)OCC(C)(N)C(=O)c1ccccc1.Cl (stereo not shown) [Compound 17, 2-Amino-2-methyl-3-oxo-3-phenylpropyl acetate hydrochloride] | eliminates the desired activity | –
7 | CNC(COC(C)=O)C(=O)c1ccccc1.Cl (stereo not shown) [Compound 16, 2-(Methylamino)-3-oxo-3-phenylpropyl acetate hydrochloride] | – | selective growth arrest/killing of cells expressing mutant p53 (in words) ([1]; acetate hydrochloride): the desired activity is lost; also recorded: eliminates the desired activity
8 | CC(=O)OC[C@@H](N)C(=O)c1ccccc1.Cl [Compound 8, (R)-3-Acetoxy-1-oxo-1-phenylpropan-2-aminium chloride] | improved activity over (±)-7 | –
